How the values were obtained:
[1] = test system: AKT2 (human), P31751 [S474D]
STK11 (human) = STK11 (human) (UniProt Q15831)
IRAK4 (human) = IRAK4 (human) (UniProt Q9NWZ3)
HIPK3 (human) = HIPK3 (human) (UniProt Q9H422)
ERBB4 (human) = ERBB4 (human) (UniProt Q15303)
MARK2 (human) = MARK2 (human) (UniProt Q7KZI7)
GCK (human) = GCK (human) (UniProt Q12851)
MARK4 (human) [2] = target: MARK4 (human) (UniProt Q96L34)
AURKA (human) = AURKA (human) (UniProt O14965)
MAPK10 (human) = MAPK10 (human) (UniProt P53779)
NUAK1 (human) = NUAK1 (human) (UniProt O60285)
[3] = test system: AKT1 (human), P31749 [S473D]
MAP3K11 (human) = MAP3K11 (human) (UniProt Q16584)
RIPK2 (human) = RIPK2 (human) (UniProt O43353); settings: compound 10.0 µM
MINK1 (human) = MINK1 (human) (UniProt Q8N4C8)
BRSK1 (human) = BRSK1 (human) (UniProt Q8TDC3)
MAPKAPK3 (human) = MAPKAPK3 (human) (UniProt Q16644)
HIPK1 (human) = HIPK1 (human) (UniProt Q86Z02)
BRSK2 (human) = BRSK2 (human) (UniProt Q8IWQ3); assay: KINOMEscan competition binding; settings: compound 10.0 µM
CDK19 (human) = CDK19 (human) (UniProt Q9BWU1); assay: KINOMEscan competition binding; settings: compound 10.0 µM
NTRK3 (human) = NTRK3 (human) (UniProt Q16288); assay: KINOMEscan competition binding; settings: compound 10.0 µM
MARK4 (human) [4] = target: MARK4 (human) (UniProt Q96L34); assay: KINOMEscan competition binding; settings: compound 10.0 µM
SIK3 (human) = SIK3 (human) (UniProt Q9Y2K2); assay: KINOMEscan competition binding; settings: compound 10.0 µM
IKBKE (human) = IKBKE (human) (UniProt Q14164); assay: KINOMEscan competition binding; settings: compound 10.0 µM
IKBKE (human), sequence (Q14164 whole entry, looked up): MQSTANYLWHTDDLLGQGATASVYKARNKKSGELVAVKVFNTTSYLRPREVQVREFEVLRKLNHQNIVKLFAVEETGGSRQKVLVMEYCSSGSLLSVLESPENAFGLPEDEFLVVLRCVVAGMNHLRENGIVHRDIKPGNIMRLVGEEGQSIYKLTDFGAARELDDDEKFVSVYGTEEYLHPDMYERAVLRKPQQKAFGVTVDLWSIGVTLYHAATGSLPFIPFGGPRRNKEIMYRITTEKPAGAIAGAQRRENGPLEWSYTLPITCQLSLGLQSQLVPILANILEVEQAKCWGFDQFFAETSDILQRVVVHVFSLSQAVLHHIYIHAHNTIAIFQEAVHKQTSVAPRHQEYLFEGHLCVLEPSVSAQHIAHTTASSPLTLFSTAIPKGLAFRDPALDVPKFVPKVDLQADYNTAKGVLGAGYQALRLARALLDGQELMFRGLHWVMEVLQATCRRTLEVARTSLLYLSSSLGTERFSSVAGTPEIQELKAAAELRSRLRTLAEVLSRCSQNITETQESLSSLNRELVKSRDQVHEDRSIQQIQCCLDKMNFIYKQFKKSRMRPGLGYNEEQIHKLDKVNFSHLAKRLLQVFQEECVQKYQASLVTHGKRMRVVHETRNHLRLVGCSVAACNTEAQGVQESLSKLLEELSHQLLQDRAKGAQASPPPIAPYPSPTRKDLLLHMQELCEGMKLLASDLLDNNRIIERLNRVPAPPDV

[5] = test system: EIF2AK4 KD2 (human), Q9P2K8 [S808G]; assay: KINOMEscan competition binding; settings: compound 10.0 µM
EIF2AK4 KD2 (human), Q9P2K8 [S808G], sequence (Q9P2K8 whole entry S808G, looked up): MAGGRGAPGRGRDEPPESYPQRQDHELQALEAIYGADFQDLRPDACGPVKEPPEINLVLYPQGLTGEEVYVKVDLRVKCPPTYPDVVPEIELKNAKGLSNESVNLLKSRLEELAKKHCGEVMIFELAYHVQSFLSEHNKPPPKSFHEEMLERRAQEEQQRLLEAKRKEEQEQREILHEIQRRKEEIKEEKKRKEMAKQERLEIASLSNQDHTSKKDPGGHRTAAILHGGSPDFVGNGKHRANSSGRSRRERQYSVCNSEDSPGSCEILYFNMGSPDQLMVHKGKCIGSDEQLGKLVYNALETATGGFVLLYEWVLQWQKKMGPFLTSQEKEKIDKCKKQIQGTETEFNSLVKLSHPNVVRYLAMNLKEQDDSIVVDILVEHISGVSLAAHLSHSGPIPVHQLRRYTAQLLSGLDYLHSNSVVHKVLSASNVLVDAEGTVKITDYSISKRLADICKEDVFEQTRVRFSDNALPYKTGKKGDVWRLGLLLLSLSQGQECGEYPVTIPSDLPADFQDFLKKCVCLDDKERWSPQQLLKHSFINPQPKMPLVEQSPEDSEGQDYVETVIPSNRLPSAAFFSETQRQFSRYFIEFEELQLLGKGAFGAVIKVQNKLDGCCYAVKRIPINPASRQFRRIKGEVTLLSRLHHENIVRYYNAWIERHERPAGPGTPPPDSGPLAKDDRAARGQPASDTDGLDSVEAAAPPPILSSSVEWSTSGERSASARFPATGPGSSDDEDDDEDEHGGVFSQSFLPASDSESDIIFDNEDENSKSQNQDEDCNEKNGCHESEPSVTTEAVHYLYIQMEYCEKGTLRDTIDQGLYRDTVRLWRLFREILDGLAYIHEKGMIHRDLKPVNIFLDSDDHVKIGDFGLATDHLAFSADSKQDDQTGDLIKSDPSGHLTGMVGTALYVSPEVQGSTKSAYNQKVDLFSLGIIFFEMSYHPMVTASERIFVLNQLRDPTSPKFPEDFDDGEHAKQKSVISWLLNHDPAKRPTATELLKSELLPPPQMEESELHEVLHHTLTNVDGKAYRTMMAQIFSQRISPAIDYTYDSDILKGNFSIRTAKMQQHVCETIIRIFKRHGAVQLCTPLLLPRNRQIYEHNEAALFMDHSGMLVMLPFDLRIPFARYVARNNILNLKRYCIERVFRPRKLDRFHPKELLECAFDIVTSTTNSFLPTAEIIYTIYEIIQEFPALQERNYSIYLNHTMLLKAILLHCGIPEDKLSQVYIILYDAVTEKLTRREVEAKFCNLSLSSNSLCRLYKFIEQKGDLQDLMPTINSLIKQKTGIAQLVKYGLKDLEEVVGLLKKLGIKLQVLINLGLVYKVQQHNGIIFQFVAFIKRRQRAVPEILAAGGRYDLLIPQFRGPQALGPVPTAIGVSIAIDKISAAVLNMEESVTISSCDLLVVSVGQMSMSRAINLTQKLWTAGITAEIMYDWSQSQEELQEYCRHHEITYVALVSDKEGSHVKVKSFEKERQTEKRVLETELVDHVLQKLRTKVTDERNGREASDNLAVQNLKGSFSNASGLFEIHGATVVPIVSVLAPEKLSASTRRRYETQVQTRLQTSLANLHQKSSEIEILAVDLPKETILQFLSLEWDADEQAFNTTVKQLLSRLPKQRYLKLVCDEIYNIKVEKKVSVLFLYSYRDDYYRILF

NEK11 (human) = NEK11 (human) (UniProt Q8NG66); assay: KINOMEscan competition binding; settings: compound 10.0 µM
NEK11 (human), sequence (Q8NG66 whole entry, looked up): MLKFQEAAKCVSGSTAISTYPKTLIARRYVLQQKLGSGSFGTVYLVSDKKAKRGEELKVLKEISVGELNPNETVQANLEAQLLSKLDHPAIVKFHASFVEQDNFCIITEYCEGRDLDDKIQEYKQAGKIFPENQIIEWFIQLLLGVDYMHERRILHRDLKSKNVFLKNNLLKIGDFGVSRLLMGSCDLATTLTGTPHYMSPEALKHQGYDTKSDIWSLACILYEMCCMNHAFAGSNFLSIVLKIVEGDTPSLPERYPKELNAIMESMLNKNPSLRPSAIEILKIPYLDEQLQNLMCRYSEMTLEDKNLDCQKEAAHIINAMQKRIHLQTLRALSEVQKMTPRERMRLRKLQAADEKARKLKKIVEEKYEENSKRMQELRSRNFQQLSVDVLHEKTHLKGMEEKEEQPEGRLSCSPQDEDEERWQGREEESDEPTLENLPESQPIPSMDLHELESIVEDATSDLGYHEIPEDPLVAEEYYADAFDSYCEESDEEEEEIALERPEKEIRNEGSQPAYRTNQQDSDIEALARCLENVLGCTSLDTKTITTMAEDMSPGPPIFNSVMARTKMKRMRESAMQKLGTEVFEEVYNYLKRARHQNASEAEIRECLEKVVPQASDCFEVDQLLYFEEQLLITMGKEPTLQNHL

MAP3K3 (human) = MAP3K3 (human) (UniProt Q99759); assay: KINOMEscan competition binding; settings: compound 10.0 µM
WEE2 (human) = WEE2 (human) (UniProt P0C1S8); assay: KINOMEscan competition binding; settings: compound 10.0 µM
WEE2 (human), sequence (P0C1S8 whole entry, looked up): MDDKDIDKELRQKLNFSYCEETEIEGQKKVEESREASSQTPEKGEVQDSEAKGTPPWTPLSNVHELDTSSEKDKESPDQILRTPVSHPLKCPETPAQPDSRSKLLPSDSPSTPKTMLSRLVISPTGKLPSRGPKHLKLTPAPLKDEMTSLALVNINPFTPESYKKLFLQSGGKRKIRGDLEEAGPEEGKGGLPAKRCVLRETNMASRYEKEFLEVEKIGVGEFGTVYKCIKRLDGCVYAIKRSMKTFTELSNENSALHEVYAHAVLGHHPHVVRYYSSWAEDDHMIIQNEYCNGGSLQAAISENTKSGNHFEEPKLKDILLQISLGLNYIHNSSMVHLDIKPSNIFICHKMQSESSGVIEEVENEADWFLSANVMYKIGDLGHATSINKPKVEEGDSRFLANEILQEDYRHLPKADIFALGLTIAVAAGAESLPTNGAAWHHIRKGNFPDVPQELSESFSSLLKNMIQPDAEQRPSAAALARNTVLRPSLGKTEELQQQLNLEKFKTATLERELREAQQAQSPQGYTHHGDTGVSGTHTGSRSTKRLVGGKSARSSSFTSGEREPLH

MAP4K2 (human) = MAP4K2 (human) (UniProt Q12851); assay: KINOMEscan competition binding; settings: compound 10.0 µM
MAP4K2 (human), sequence (Q12851 whole entry, looked up): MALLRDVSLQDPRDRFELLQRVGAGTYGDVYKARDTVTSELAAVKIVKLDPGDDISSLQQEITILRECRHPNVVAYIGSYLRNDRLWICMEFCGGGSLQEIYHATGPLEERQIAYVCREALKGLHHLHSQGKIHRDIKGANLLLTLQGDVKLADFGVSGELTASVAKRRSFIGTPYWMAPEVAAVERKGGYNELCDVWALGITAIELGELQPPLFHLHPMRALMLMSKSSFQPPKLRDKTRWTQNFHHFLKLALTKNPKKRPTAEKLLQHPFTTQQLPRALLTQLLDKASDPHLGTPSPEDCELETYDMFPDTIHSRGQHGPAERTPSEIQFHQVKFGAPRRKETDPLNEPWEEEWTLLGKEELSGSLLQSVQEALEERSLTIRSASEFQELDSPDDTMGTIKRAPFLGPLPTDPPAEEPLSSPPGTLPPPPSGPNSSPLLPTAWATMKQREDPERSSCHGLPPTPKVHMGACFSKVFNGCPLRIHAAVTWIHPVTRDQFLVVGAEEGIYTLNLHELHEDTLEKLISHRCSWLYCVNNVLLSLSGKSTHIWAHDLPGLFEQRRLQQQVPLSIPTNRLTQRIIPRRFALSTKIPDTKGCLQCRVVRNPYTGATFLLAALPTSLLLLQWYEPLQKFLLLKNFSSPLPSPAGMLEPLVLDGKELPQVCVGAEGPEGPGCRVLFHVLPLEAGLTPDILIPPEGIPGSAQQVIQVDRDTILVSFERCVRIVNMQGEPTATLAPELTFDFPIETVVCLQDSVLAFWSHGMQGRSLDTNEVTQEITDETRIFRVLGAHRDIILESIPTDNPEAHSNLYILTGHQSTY

ERBB2 (human) = ERBB2 (human) (UniProt P04626); assay: KINOMEscan competition binding; settings: compound 10.0 µM
MKNK1 (human) = MKNK1 (human) (UniProt Q9BUB5); assay: KINOMEscan competition binding; settings: compound 10.0 µM
CDC42BPB (human) = CDC42BPB (human) (UniProt Q9Y5S2); assay: KINOMEscan competition binding; settings: compound 10.0 µM
CASK (human) = CASK (human) (UniProt O14936); assay: KINOMEscan competition binding; settings: compound 10.0 µM
RIOK1 (human) = RIOK1 (human) (UniProt Q9BRS2); assay: KINOMEscan competition binding; settings: compound 10.0 µM
RIOK1 (human), sequence (Q9BRS2 whole entry, looked up): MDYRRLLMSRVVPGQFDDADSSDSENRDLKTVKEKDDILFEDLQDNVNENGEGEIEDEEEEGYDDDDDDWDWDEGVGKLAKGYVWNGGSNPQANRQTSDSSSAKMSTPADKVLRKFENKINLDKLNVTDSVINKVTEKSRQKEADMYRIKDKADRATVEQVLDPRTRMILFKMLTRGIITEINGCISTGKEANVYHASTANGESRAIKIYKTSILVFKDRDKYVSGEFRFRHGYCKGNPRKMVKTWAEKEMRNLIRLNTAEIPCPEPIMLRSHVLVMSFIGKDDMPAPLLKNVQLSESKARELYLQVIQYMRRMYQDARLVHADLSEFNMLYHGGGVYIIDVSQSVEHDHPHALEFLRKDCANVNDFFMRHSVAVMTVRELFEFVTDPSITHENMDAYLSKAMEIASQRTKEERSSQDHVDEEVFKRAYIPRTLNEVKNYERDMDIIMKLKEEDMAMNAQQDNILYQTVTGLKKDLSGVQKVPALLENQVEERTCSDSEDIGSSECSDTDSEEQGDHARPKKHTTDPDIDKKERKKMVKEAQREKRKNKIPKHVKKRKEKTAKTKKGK

INSR (human) = INSR (human) (UniProt P06213)
RPS6KB1 (human) = RPS6KB1 (human) (UniProt P23443); assay: KINOMEscan competition binding; settings: compound 10.0 µM
[6] = test system: KIT (human), P10721 [A829P]; assay: KINOMEscan competition binding; settings: compound 10.0 µM

GCK (human), sequence (Q12851 whole entry, looked up): as the sequence (Q12851 whole entry, looked up) above

CCC(=O)N1CCN(c2ccc(-n3c(=O)ccc4cnc5ccc(-c6cnc7ccccc7c6)cc5c43)cc2C(F)(F)F)CC1
per cent of control ([1]; compound 1.0 µM): 95%
per cent of control ([1]; compound 10.0 µM): 84%
per cent of control (STK11 (human); compound 1.0 µM): 96%
per cent of control (STK11 (human); compound 10.0 µM): 80%
per cent of control (IRAK4 (human); compound 1.0 µM): 112%
per cent of control (IRAK4 (human); compound 10.0 µM): 76%
per cent of control (HIPK3 (human); compound 1.0 µM): 107%
per cent of control (HIPK3 (human); compound 10.0 µM): 91%
per cent of control (ERBB4 (human); compound 1.0 µM): 110%
per cent of control (ERBB4 (human); compound 10.0 µM): 111%
per cent of control (MARK2 (human); compound 1.0 µM): 117%
per cent of control (MARK2 (human); compound 10.0 µM): 102%
per cent of control (GCK (human); compound 1.0 µM): 69%
per cent of control (GCK (human); compound 10.0 µM): 25%
per cent of control (MARK4 (human) [2]; compound 1.0 µM): 94%
per cent of control (MARK4 (human) [2]; compound 10.0 µM): 97%
per cent of control (AURKA (human); compound 1.0 µM): 88%
per cent of control (AURKA (human); compound 10.0 µM): 68%
per cent of control (MAPK10 (human); compound 1.0 µM): 99%
per cent of control (MAPK10 (human); compound 10.0 µM): 79%
per cent of control (NUAK1 (human); compound 1.0 µM): 101%
per cent of control (NUAK1 (human); compound 10.0 µM): 79%
per cent of control ([3]; compound 1.0 µM): 94%
per cent of control ([3]; compound 10.0 µM): 71%
per cent of control (MAP3K11 (human); compound 1.0 µM): 99%
per cent of control (MAP3K11 (human); compound 10.0 µM): 86%
per cent of control (RIPK2 (human)): 64%
per cent of control (MINK1 (human); compound 1.0 µM): 69%
per cent of control (MINK1 (human); compound 10.0 µM): 14%
per cent of control (BRSK1 (human); compound 1.0 µM): 99%
per cent of control (BRSK1 (human); compound 10.0 µM): 94%
per cent of control (MAPKAPK3 (human); compound 1.0 µM): 113%
per cent of control (MAPKAPK3 (human); compound 10.0 µM): 105%
per cent of control (HIPK1 (human); compound 1.0 µM): 76%
per cent of control (HIPK1 (human); compound 10.0 µM): 85%
kinase still bound, per cent of control (BRSK2 (human)): 76%
per cent of control (CDK19 (human)): 1.2%
kinase still bound, per cent of control (NTRK3 (human)): 100%
kinase still bound, per cent of control (MARK4 (human) [4]): 100%
kinase still bound, per cent of control (SIK3 (human)): 89%
kinase still bound, per cent of control (IKBKE (human)): 87%
kinase still bound, per cent of control [5]: 99%
kinase still bound, per cent of control (NEK11 (human)): 65%
kinase still bound, per cent of control (MAP3K3 (human)): 75%
kinase still bound, per cent of control (WEE2 (human)): 100%
kinase still bound, per cent of control (MAP4K2 (human)): 35%
kinase still bound, per cent of control (ERBB2 (human)): 91%
kinase still bound, per cent of control (MKNK1 (human)): 44%
kinase still bound, per cent of control (CDC42BPB (human)): 3.4%
kinase still bound, per cent of control (CASK (human)): 100%
kinase still bound, per cent of control (RIOK1 (human)): 81%

CC(C)n1nc(-c2cc3cc(O)ccc3[nH]2)c2c(N)ncnc21
per cent of control (INSR (human); compound 1.0 µM): 69%
per cent of control (INSR (human); compound 10.0 µM): 58%
kinase still bound, per cent of control (BRSK2 (human)): 0.95%
per cent of control (CDK19 (human)): 24%
kinase still bound, per cent of control (NTRK3 (human)): 49%
kinase still bound, per cent of control (MARK4 (human) [4]): 82%
kinase still bound, per cent of control (SIK3 (human)): 20%
kinase still bound, per cent of control (IKBKE (human)): 70%
kinase still bound, per cent of control [5]: 81%
kinase still bound, per cent of control (NEK11 (human)): 74%
kinase still bound, per cent of control (MAP3K3 (human)): 3.2%
kinase still bound, per cent of control (WEE2 (human)): 100%
kinase still bound, per cent of control (MAP4K2 (human)): 0%
kinase still bound, per cent of control (ERBB2 (human)): 29%
kinase still bound, per cent of control (RPS6KB1 (human)): 57%
kinase still bound, per cent of control (MKNK1 (human)): 19%
kinase still bound, per cent of control (CDC42BPB (human)): 71%
kinase still bound, per cent of control (RIOK1 (human)): 100%
kinase still bound, per cent of control [6]: 10%

COc1ccc(-c2ccc3c(N4CCOCC4)nc(N4C[C@@H](C)O[C@@H](C)C4)nc3n2)cc1CO
per cent of control (INSR (human); compound 1.0 µM): 81%
per cent of control (INSR (human); compound 10.0 µM): 67%
kinase still bound, per cent of control (BRSK2 (human)): 98%
per cent of control (CDK19 (human)): 73%
kinase still bound, per cent of control (NTRK3 (human)): 77%
kinase still bound, per cent of control (MARK4 (human) [4]): 84%
kinase still bound, per cent of control (SIK3 (human)): 97%
kinase still bound, per cent of control (IKBKE (human)): 100%
kinase still bound, per cent of control [5]: 66%
kinase still bound, per cent of control (NEK11 (human)): 72%
kinase still bound, per cent of control (MAP3K3 (human)): 76%
kinase still bound, per cent of control (WEE2 (human)): 100%
kinase still bound, per cent of control (MAP4K2 (human)): 86%
kinase still bound, per cent of control (ERBB2 (human)): 94%
kinase still bound, per cent of control (RPS6KB1 (human)): 100%
kinase still bound, per cent of control (MKNK1 (human)): 36%
kinase still bound, per cent of control (CDC42BPB (human)): 81%
kinase still bound, per cent of control (CASK (human)): 100%
kinase still bound, per cent of control (RIOK1 (human)): 51%
kinase still bound, per cent of control [6]: 100%

Reference: the kinase profiling compilation of Christmann-Franck et al. (2016)
